Reference: the supplement of paper PMC10878532, “Sperm Toolbox—A selection of small molecules to study human spermatozoa” (PLOS ONE, 2024)

Columns and labels:
human spermatozoa [1] = test: change in acrosome-reacted (PNA+) sperm vs DMSO, no agonist (capacitating); higher = more of the measured sperm population than DMSO, for viability, fewer PI-positive (dead) cells than DMSO; conditions: incubation time: 3h
HepG2 = HepG2 toxicity (resazurin), effect normalised to DMSO (DMSO = 0); higher = more features changed / larger toxic effect; conditions: incubation time: 70h incubation
human spermatozoa [2] = test: acrosome-reacted (PNA+) sperm after agonist cocktail, percent change vs DMSO (capacitating); higher = more of the measured sperm population than DMSO, for viability, fewer PI-positive (dead) cells than DMSO; conditions: incubation time: 3h, capacitating + agonist cocktail 1h
human spermatozoa [3] = test: progressively motile sperm, percent change vs DMSO (non-capacitating); higher = more of the measured sperm population than DMSO, for viability, fewer PI-positive (dead) cells than DMSO; extreme values may be limits of the assay
HeLa [4] = test: HeLa toxicity: nuclei-count effect normalised to DMSO (DMSO = 0); higher = more features changed / larger toxic effect; conditions: incubation time: 24h incubation
human spermatozoa [5] = test: total motile sperm, percent change vs DMSO (non-capacitating); higher = more of the measured sperm population than DMSO, for viability, fewer PI-positive (dead) cells than DMSO
HeLa [6] = test: Cell Painting percent induction (share of features beyond 2 z-scores vs DMSO); higher = more features changed / larger toxic effect; extreme values may be limits of the assay; conditions: incubation time: 24h incubation
human spermatozoa [7] = test: progressively motile sperm, percent change vs DMSO (capacitating); higher = more of the measured sperm population than DMSO, for viability, fewer PI-positive (dead) cells than DMSO; conditions: incubation time: 30min incubation
human spermatozoa [8] = test: hyperactivated motile sperm, percent change vs DMSO (capacitating); higher = more of the measured sperm population than DMSO, for viability, fewer PI-positive (dead) cells than DMSO; conditions: incubation time: 30min incubation
human spermatozoa [9] = test: viability fold change, 1 - (PI-positive fraction / DMSO median); higher = more of the measured sperm population than DMSO, for viability, fewer PI-positive (dead) cells than DMSO; conditions: incubation time: 3h, non-capacitating
[10] = incubation time: 10min incubation, 9.99 µM
[11] = incubation time: 10min incubation, 29.9 µM
[12] = incubation time: 3h incubation, 9.99 µM
[13] = incubation time: 3h incubation, 29.9 µM
[14] = incubation time: 6h incubation, 9.99 µM
[15] = incubation time: 6h incubation, 29.9 µM
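Throughout, for progressively motile sperm, percent change vs DMSO (non-capacitating): pooled live human sperm from at least 3 donors, tracked by automated microscopy in 0.5 s time-lapse movies, compounds at 10 and 30 µM, versus median of 16 DMSO wells per plate.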
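Throughout, for total motile sperm, percent change vs DMSO (non-capacitating): sperm pooled from at least 3 donors, tracked in 0.5 s time-lapse movies by automated microscopy after 10 min, 3 h or 6 h with compound at 10 or 30 µM.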

In the case of `CN(c1ccccc1CNc1nc(Nc2ccc3c(c2)CC(=O)N3)ncc1C(F)(F)F)S(C)(=O)=O`, the change in acrosome-reacted (human spermatozoa [1]; 9.99 µM) is reported as 0.291%, the change in acrosome-reacted (human spermatozoa [1]; 29.9 µM) is reported as 0.085% and the HepG2 toxicity (HepG2; 10 µM) is reported as 95.1%. For the same compound, the HepG2 toxicity (HepG2; 30 µM) was 90.2%, the acrosome-reacted (human spermatozoa [2]; 9.99 µM) was -10.6% and the acrosome-reacted (human spermatozoa [2]; 29.9 µM) was -8.83%. For the same compound, the progressively motile sperm (human spermatozoa [3]; [10]) was 20.2%, the progressively motile sperm (human spermatozoa [3]; [11]) was 16.8% and the progressively motile sperm (human spermatozoa [3]; [12]) was 29.9%. The progressively motile sperm (human spermatozoa [3]; [13]) was 21.7%, the progressively motile sperm (human spermatozoa [3]; [14]) was 40.3% and the progressively motile sperm (human spermatozoa [3]; [15]) was 24.4%. The “HeLa toxicity: nuclei-count effect normalised” value (HeLa [4]; 9.99 µM) was 81.5%, the “HeLa toxicity: nuclei-count effect normalised” value (HeLa [4]; 29.9 µM) was 90.7% and the total motile sperm (human spermatozoa [5]; [10]) was -4.4%. It also gave a total motile sperm (human spermatozoa [5]; [11]) of -6.03%, a total motile sperm (human spermatozoa [5]; [12]) of -7.55% and a total motile sperm (human spermatozoa [5]; [13]) of -13.4%. The total motile sperm (human spermatozoa [5]; [14]) was -11%, the total motile sperm (human spermatozoa [5]; [15]) was -16.3% and the “Cell Painting percent induction” value (HeLa [6]; 9.99 µM) was 8.65%. The “Cell Painting percent induction” value (HeLa [6]; 29.9 µM) was 17.7%, the progressively motile sperm (human spermatozoa [7]; 9.99 µM) was -2.37% and the progressively motile sperm (human spermatozoa [7]; 29.9 µM) was -3.01%. For the same compound, the hyperactivated motile sperm (human spermatozoa [8]; 9.99 µM) was 41.5%, the hyperactivated motile sperm (human spermatozoa [8]; 29.9 µM) was -30.2% and the viability fold change (human spermatozoa [9]; 9.99 µM) was -1.76. The viability fold change (human spermatozoa [9]; 29.9 µM) was -1.35.
`COc1cc(N2CCOCC2)ccc1Nc1ncc(F)c(Nc2ccccc2NS(C)(=O)=O)n1` was tested, and the change in acrosome-reacted (human spermatozoa [1]; 9.99 µM) was 0.77%, the change in acrosome-reacted (human spermatozoa [1]; 29.9 µM) was -0.256% and the HepG2 toxicity (HepG2; 10 µM) was 11.9%. The HepG2 toxicity (HepG2; 30 µM) was 14%, the acrosome-reacted (human spermatozoa [2]; 9.99 µM) was -20.4% and the acrosome-reacted (human spermatozoa [2]; 29.9 µM) was -26.8%. The progressively motile sperm (human spermatozoa [3]; [10]) was -27.7%, the progressively motile sperm (human spermatozoa [3]; [11]) was -60.9% and the progressively motile sperm (human spermatozoa [3]; [12]) was -32.8%. For the same compound, the progressively motile sperm (human spermatozoa [3]; [13]) was -74.5%, the progressively motile sperm (human spermatozoa [3]; [14]) was -27% and the progressively motile sperm (human spermatozoa [3]; [15]) was -69.7%. The “HeLa toxicity: nuclei-count effect normalised” value (HeLa [4]; 9.99 µM) was 12%, the “HeLa toxicity: nuclei-count effect normalised” value (HeLa [4]; 29.9 µM) was 70.3% and the total motile sperm (human spermatozoa [5]; [10]) was -2.71%. The total motile sperm (human spermatozoa [5]; [11]) was -11.9%, the total motile sperm (human spermatozoa [5]; [12]) was -6.38% and the total motile sperm (human spermatozoa [5]; [13]) was -20.1%. The total motile sperm (human spermatozoa [5]; [14]) was -5.57%, the total motile sperm (human spermatozoa [5]; [15]) was -17.4% and the “Cell Painting percent induction” value (HeLa [6]; 9.99 µM) was 0.324%. The “Cell Painting percent induction” value (HeLa [6]; 29.9 µM) was 14.1%, the progressively motile sperm (human spermatozoa [7]; 9.99 µM) was -10.8% and the progressively motile sperm (human spermatozoa [7]; 29.9 µM) was -4.79%. The hyperactivated motile sperm (human spermatozoa [8]; 9.99 µM) was 7.89%, the hyperactivated motile sperm (human spermatozoa [8]; 29.9 µM) was -19.1% and the viability fold change (human spermatozoa [9]; 9.99 µM) was 0.0946. It also gave a viability fold change (human spermatozoa [9]; 29.9 µM) of 0.0988.
In the case of `CCc1cc(Nc2nccc(-c3c(-c4ccc(OC)c(C(=O)Nc5c(F)cccc5F)c4)nc4ccccn34)n2)c(OC)cc1N1CCC(N2CCN(S(C)(=O)=O)CC2)CC1`, the change in acrosome-reacted (human spermatozoa [1]; 9.99 µM) is reported as 0.271%, the change in acrosome-reacted (human spermatozoa [1]; 29.9 µM) is reported as -0.0593% and the HepG2 toxicity (HepG2; 10 µM) is reported as 3.43%. For the same compound, the HepG2 toxicity (HepG2; 30 µM) was -1.34%, the acrosome-reacted (human spermatozoa [2]; 9.99 µM) was -8.69% and the acrosome-reacted (human spermatozoa [2]; 29.9 µM) was 2.76%. It also gave a progressively motile sperm (human spermatozoa [3]; [10]) of 4.67%, a progressively motile sperm (human spermatozoa [3]; [11]) of 2.77% and a progressively motile sperm (human spermatozoa [3]; [12]) of 36.3%. For the same compound, the progressively motile sperm (human spermatozoa [3]; [13]) was 31.8%, the progressively motile sperm (human spermatozoa [3]; [14]) was 50.7% and the progressively motile sperm (human spermatozoa [3]; [15]) was 33.6%. For the same compound, the “HeLa toxicity: nuclei-count effect normalised” value (HeLa [4]; 9.99 µM) was 4.68%, the “HeLa toxicity: nuclei-count effect normalised” value (HeLa [4]; 29.9 µM) was -3.87% and the total motile sperm (human spermatozoa [5]; [10]) was -4.19%. It also gave a total motile sperm (human spermatozoa [5]; [11]) of -0.876%, a total motile sperm (human spermatozoa [5]; [12]) of -8.85% and a total motile sperm (human spermatozoa [5]; [13]) of -6.8%. The total motile sperm (human spermatozoa [5]; [14]) was -6.63%, the total motile sperm (human spermatozoa [5]; [15]) was -13% and the “Cell Painting percent induction” value (HeLa [6]; 9.99 µM) was 0%. The “Cell Painting percent induction” value (HeLa [6]; 29.9 µM) was 0.036%, the progressively motile sperm (human spermatozoa [7]; 9.99 µM) was -19.6% and the progressively motile sperm (human spermatozoa [7]; 29.9 µM) was -24.3%. The hyperactivated motile sperm (human spermatozoa [8]; 9.99 µM) was -15.3%, the hyperactivated motile sperm (human spermatozoa [8]; 29.9 µM) was -19% and the viability fold change (human spermatozoa [9]; 9.99 µM) was 0.344. For the same compound, the viability fold change (human spermatozoa [9]; 29.9 µM) was 0.176.
In the case of `O=C(c1cccs1)c1no[n+]([O-])c1C(=O)c1cccs1`, the change in acrosome-reacted (human spermatozoa [1]; 9.99 µM) is reported as 1.47%, the change in acrosome-reacted (human spermatozoa [1]; 29.9 µM) is reported as 2.4% and the HepG2 toxicity (HepG2; 10 µM) is reported as 103%. The HepG2 toxicity (HepG2; 30 µM) was 103%, the acrosome-reacted (human spermatozoa [2]; 9.99 µM) was -24.1% and the acrosome-reacted (human spermatozoa [2]; 29.9 µM) was -23.9%. For the same compound, the progressively motile sperm (human spermatozoa [3]; [10]) was -17%, the progressively motile sperm (human spermatozoa [3]; [11]) was -39.6% and the progressively motile sperm (human spermatozoa [3]; [12]) was -29.1%. It also gave a progressively motile sperm (human spermatozoa [3]; [13]) of -78.3%, a progressively motile sperm (human spermatozoa [3]; [14]) of -50.4% and a progressively motile sperm (human spermatozoa [3]; [15]) of -91.5%. For the same compound, the “HeLa toxicity: nuclei-count effect normalised” value (HeLa [4]; 9.99 µM) was 36.5%, the “HeLa toxicity: nuclei-count effect normalised” value (HeLa [4]; 29.9 µM) was 82% and the total motile sperm (human spermatozoa [5]; [10]) was 1.03%. The total motile sperm (human spermatozoa [5]; [11]) was 2.49%, the total motile sperm (human spermatozoa [5]; [12]) was -13.1% and the total motile sperm (human spermatozoa [5]; [13]) was -40.1%. The total motile sperm (human spermatozoa [5]; [14]) was -30.5%, the total motile sperm (human spermatozoa [5]; [15]) was -54.9% and the “Cell Painting percent induction” value (HeLa [6]; 9.99 µM) was 0.216%. The “Cell Painting percent induction” value (HeLa [6]; 29.9 µM) was 14.3%, the progressively motile sperm (human spermatozoa [7]; 9.99 µM) was 0.304% and the progressively motile sperm (human spermatozoa [7]; 29.9 µM) was -15.7%. For the same compound, the hyperactivated motile sperm (human spermatozoa [8]; 9.99 µM) was -32.4%, the hyperactivated motile sperm (human spermatozoa [8]; 29.9 µM) was -81.3% and the viability fold change (human spermatozoa [9]; 9.99 µM) was -0.427. The viability fold change (human spermatozoa [9]; 29.9 µM) was -1.21.
